In patent US20190209506A1, “METHODS OF REDUCING OR PREVENTING OXIDATION OF LDL OR LIPID MEMBRANES IN A SUBJECT IN NEED THEREOF” (Amarin Pharmaceuticals Ireland Limited, priority 2018, published 2019):
“And” between values parts separate entries of the source, which are not always exact repeats. Equal values may be shown once. Blank lines part the entries; values can stand above or below the compound they belong to.

Key:
human LDL = test: Copper-induced oxidation of unfractionated LDL, TBARS (Example 7); format: biochemical; conditions: 1 hour
Protocol: An experiment to study the antioxidant effect of EPA in LDL and small dense LDL (“sdLDL”) was performed. LDL and sdLDL were isolated from the plasma of healthy volunteers by iodixanol density gradient ultracentrifugation, and adjusted to a final apolipoprotein concentration of 2 mg/mL. […] Vitamin E was also incubated with sample aliquots as a positive control.

human sdLDL [1] = test: Copper-induced sdLDL oxidation, TBARS (Example 7); format: biochemical
Protocol: An experiment to study the antioxidant effect of EPA in LDL and small dense LDL (“sdLDL”) was performed. LDL and sdLDL were isolated from the plasma of healthy volunteers by iodixanol density gradient ultracentrifugation, and adjusted to a final apolipoprotein concentration of 2 mg/mL. […] Lipid oxidation was initiated with 10 μM CuSO4 and monitored by the colorimetric detection of thiobarbituric acid reactive substances (TBARS) for 1 hr. Vitamin E was also incubated with sample aliquots as a positive control.

human sdLDL [2] = test: Copper-induced sdLDL oxidation, TBARS after 2 hr (Example 6); format: biochemical
Protocol: Venous blood was collected from healthy volunteers into vacutainer tubes containing sodium EDTA. Plasma was separated by centrifugation at 3000 g for 25 min at 4° C. and adjusted to a density of 1.020 g/mL with KBr. Triglyceride-rich lipoproteins (TGRL) and LDL fractions were then isolated by sequential centrifugation at 70,000 rpm at 4° C. in a Beckman LE-80 ultracentrifuge using a Beckman 50.4Ti rotor (Beckman Coulter, Inc., Fullerton, Calif.). The TGRL fraction (with a relative density of <1.020) was aspirated from the top of the centrifugate and discarded, leaving an LDL-enriched infranate (with a relative density of 1.020 to 1.063). The plasma LDL fraction was further fractionated into LDL1, LDL2, LDL3, and LDL4 (sdLDL) subfractions with relative densities of 1.020 to 1.035, 1.035 to 1.050, 1.050 to 1.063, and 1.063 to 1.075, respectively. The sdLDL subfraction was retained for additional experimentation. Plasma and lipoprotein fractions were maintained at 4° C. and protected from excessive exposure to light. Prior to oxidation experiments, EDTA was removed from the lipoprotein fraction using PD-10 desalting columns (GE Healthcare, Piscataway N.J.). After equilibration of the column with phosphate buffered saline (PBS), 2.5 mL of the lipoprotein fraction was loaded on the column and the flow-through discarded. The lipoprotein was then eluted with 3 mL of PBS. The LDL fractions were further diluted with PBS to obtain a 100 μg/mL apoB100 concentration.
LDL and sdLDL subfractions (0.6 mL each) were incubated with either 10 μL vehicle (ethanol) or 10 μL drug stock solution for 30 min to 1 hr at 37° C. Oxidation was initiated by the addition of 10 μM CuSO4. After 2 hr, 100 μL aliquots were removed from each subfraction and combined with 1.0 mL thiobarbituric acid (0.5%), 10 μL trichloroacetic acid (5%), 10 μL BHT (5 mg/mL in methanol), and 10 μL EDTA (5 mM). […]. Sample TBARS concentrations were determined spectrophotometrically by measuring sample absorbances against a standard curve derived from the hydrolysis of 1,1,3,3-tetramethoxypropane.

[3] = Glucose- and peroxidation-induced cholesterol domain formation, small angle x-ray diffraction (Example 4); conditions: 1:30 drug-to-phospholipid, glucose 200 mg/dL
Protocol: Samples were shell-dried under nitrogen gas and placed under vacuum for 1 h to remove residual solvent. […] Lipid suspensions were then vortexed for 3 min at ambient temperature to form MLVs. […] Membrane lipid vesicles were oriented for x-ray diffraction analysis as described by others (e.g., Herbette et al., Biophys. […] Briefly, a 100 μL aliquot (containing 250 μg MLV) was aspirated from each sample and transferred to a Lucite® sedimentation cell fitted with an aluminum foil substrate upon which a given sample could be collected by centrifugation. Samples were then loaded into a Sorvall AH-629 swinging bucket rotor (DuPont Corp., Wilmington, Del.) and centrifuged at 35,000 g, 5° C., for 90 min. After centrifugal orientation, sample supernatants were aspirated and aluminum foil substrates, each supporting a single membrane pellet, were removed from the sedimentation cells. […] The d-space for any given membrane multibilayer is a measurement of the unit cell periodicity of the membrane lipid bilayer (e.g., the distance from the center of one lipid bilayer to the next including surface hydration), and is calculated from Bragg's Law, […], where h is the diffraction order, λ is the wavelength of the x-ray radiation (1.54 Å), d is the membrane lipid bilayer unit cell periodicity, and θ is the Bragg angle equal to one-half the angle between the incident beam and scattered beam. […]

Compound: Cc1c(C)c2c(c(C)c1O)CC[C@@](C)(CCC[C@H](C)CCC[C@H](C)CCCC(C)C)O2 [vitamin E, α-tocopherol, reference compound]
effect on unfractionated LDL oxidation (human LDL; 10 μM): no significant effect on unfractionated LDL oxidation | effect on sdLDL oxidation compared to vehicle-treated controls (human sdLDL [1]; 10 μM, 1 hour): no significant effect on sdLDL oxidation | reduction of TBARS levels compared to vehicle-treated controls (human sdLDL [2]; 10.0 μM): 26% | effect on sdLDL oxidation (human sdLDL [2]; concentrations 1.0 μM to 10.0 μM): did not inhibit sdLDL oxidation except at the highest concentration | effect on cholesterol domain formation compared to control ([3]; any experimental time point): no significant effect on cholesterol domain formation

IC50 (human sdLDL [1]; 1 hr): ~2000 nM
Compound: CC/C=C\C/C=C\C/C=C\C/C=C\C/C=C\CCCC(=O)O [EPA, cis-5,8,11,14,17-eicosapentaenoic acid]
inhibition of TBARS formation compared to vehicle-treated control (human LDL; highest treatment concentration (10)): > 90% | inhibition of sdLDL oxidation (human sdLDL [1]; 1.0 μM, 1 hr, vs vehicle): 19±8% | inhibition of TBARS formation / sdLDL oxidation (human sdLDL [1]; 10 μM, 1 hr, vs vehicle, 10 µM): 93±2% and 92±8% | effect on sdLDL oxidation compared to vehicle or DHA (human sdLDL [1]; 10.0 μM, after 4 hours): significantly inhibited sdLDL oxidation | reduction of TBARS levels compared to vehicle-treated controls (human sdLDL [2]; 10.0 μM): 57% | reduction of TBARS levels compared to vehicle-treated controls (human sdLDL [2]; lowest dose tested (1.0)): 13% | inhibition of relative cholesterol domain peak intensity ([3]; 96-hour time point, vs vehicle or vitamin E): more than 99%
